Reference: ChEMBL document CHEMBL2203221, “Atom-based enumeration: new eribulin analogues with low susceptibility to P-glycoprotein-mediated drug efflux” (Bioorg Med Chem Lett, 2012)

Columns and labels:
[1] = Cytotoxicity against human MES-SA/Dx5-Rx1 cells; type: functional, cell-based
[2] = tested on: MES-SA; experiment: Resistance ratio of IC50 for human MES-SA/Dx5-Rx1 cells to IC50 for human MES-SA cells; type: functional
[3] = Cytotoxicity against human MES-SA cells; type: functional, cell-based

**Q.** Which results are given for `C=C1C[C@@H]2CC[C@@]34C[C@H]5O[C@H]6[C@@H](O3)[C@H]3O[C@H](CC[C@@H]3O[C@H]6[C@H]5O4)CC(=O)C[C@@H]3[C@@H](OC)[C@@H](C[C@H](O)CN)O[C@H]3C[C@H]3O[C@@H](CC[C@@H]1O2)C[C@@H](C)C3=C.CS(=O)(=O)O` [ERIBULIN MESYLATE]?
**A.** IC50 [1]: 3100 nM; Ratio IC50 [2]: 1800; IC50 [3]: 1.7 nM

**Q.** For `C=C1C[C@@H]2CC[C@@]34C[C@H]5O[C@@H]6[C@@H](O3)[C@H]3O[C@H](CC[C@@H]3O[C@H]6[C@H]5O4)CC(=O)C[C@@H]3[C@@H](OC)[C@@H](C[C@H](O)CO)O[C@H]3C[C@H]3O[C@@H](CC[C@@H]1O2)C[C@@H](C)C3=C`, which IC50 [1] is on record?
**A.** 6.5 nM

**Q.** What about the “Ratio IC50” value [2] of the same compound?
**A.** 220

**Q.** And the IC50 [3]?
**A.** 0.03 nM

**Q.** Which results are given for `C=C1C[C@@H]2CC[C@@]34C[C@H]5O[C@@H]6[C@@H](O3)[C@H]3O[C@H](CC[C@@H]3O[C@H]6[C@H]5O4)CC(=O)C[C@@H]3[C@@H](OC)[C@@H](C[C@H](O)COC)O[C@H]3C[C@H]3O[C@@H](CC[C@@H]1O2)C[C@@H](C)C3=C`?
**A.** IC50 [1]: 2.8 nM; Ratio IC50 [2]: 17; IC50 [3]: 0.17 nM

**Q.** With `C=C1C[C@@H]2CC[C@@]34C[C@H]5O[C@@H]6[C@@H](O3)[C@H]3O[C@H](CC[C@@H]3O[C@H]6[C@H]5O4)CC(=O)C[C@@H]3[C@@H](OC)[C@@H](CC(O)CCCCCC)O[C@H]3C[C@H]3O[C@@H](CC[C@@H]1O2)C[C@@H](C)C3=C` (stereo not given in full) as the compound, how does the IC50 [1] read?
**A.** 2.1 nM

**Q.** What about the “Ratio IC50” value [2] of the same compound?
**A.** 4.6

**Q.** What about the IC50 [3] of the same compound?
**A.** 0.46 nM

**Q.** What does the source list for `C=C1C[C@@H]2CC[C@@]34C[C@H]5O[C@@H]6[C@@H](O3)[C@H]3O[C@H](CC[C@@H]3O[C@H]6[C@H]5O4)CC(=O)C[C@@H]3[C@@H](OC)[C@@H](CCO)O[C@H]3C[C@H]3O[C@@H](CC[C@@H]1O2)C[C@@H](C)C3=C`?
**A.** IC50 [1]: 100 nM; Ratio IC50 [2]: 33; IC50 [3]: 3 nM

**Q.** For `C=C1C[C@@H]2CC[C@@]34C[C@H]5O[C@@H]6[C@@H](O3)[C@H]3O[C@H](CC[C@@H]3O[C@H]6[C@H]5O4)CC(=O)C[C@@H]3[C@@H](OC)[C@@H](CC(O)CCCC)O[C@H]3C[C@H]3O[C@@H](CC[C@@H]1O2)C[C@@H](C)C3=C` (stereo not given in full), which IC50 [1] is on record?
**A.** 0.91 nM

**Q.** And the “Ratio IC50” value [2]?
**A.** 4.2

**Q.** And the IC50 [3]?
**A.** 0.22 nM

**Q.** Which results are given for `C=C1C[C@@H]2CC[C@@]34C[C@H]5O[C@@H]6[C@@H](O3)[C@H]3O[C@H](CC[C@@H]3O[C@H]6[C@H]5O4)CC(=O)C[C@@H]3[C@@H](OC)[C@@H](CC(O)CCCCCCCC)O[C@H]3C[C@H]3O[C@@H](CC[C@@H]1O2)C[C@@H](C)C3=C` (stereo not given in full)?
**A.** IC50 [1]: 5.6 nM; Ratio IC50 [2]: 7.2; IC50 [3]: 0.77 nM

**Q.** For `CC(=O)O[C@H]1C(=O)[C@@]2(C)[C@H]([C@H](OC(=O)c3ccccc3)[C@]3(O)C[C@H](OC(=O)[C@H](O)[C@@H](NC(=O)c4ccccc4)c4ccccc4)C(C)=C1C3(C)C)[C@]1(OC(C)=O)CO[C@@H]1C[C@@H]2O` [PACLITAXEL], which IC50 [1] is on record?
**A.** > 1000 nM

**Q.** Which results are given for `C=C1C[C@@H]2CC[C@@]34C[C@H]5O[C@@H]6[C@@H](O3)[C@H]3O[C@H](CC[C@@H]3O[C@H]6[C@H]5O4)CC(=O)C[C@@H]3[C@@H](OC)[C@@H](CC(C)O)O[C@H]3C[C@H]3O[C@@H](CC[C@@H]1O2)C[C@@H](C)C3=C` (stereo not given in full)?
**A.** IC50 [1]: 4.8 nM; Ratio IC50 [2]: 17; IC50 [3]: 0.29 nM
